Species: Rattus norvegicus
Test: Open TG-GATES - Regimen: Daily Repeat
Format: toxicity, organism-based, Sprague-Dawley
Parameters: regimen Daily Repeat, gender Male, age 6 weeks
Details: in vivo, po, route gavage; for APTT / Bas / Eos / Fbg / Hb / Ht / Lym / MCHC / MCV / Mono / Neu / PT / Plat / RBC / Ret / WBC: tissue Blood; for KIDNEY_L / KIDNEY_R / KIDNEY_TOTAL: tissue Kidney; for LIVER: tissue Liver; for ALP / ALT / AST / CRE / DBIL / GLC / K / LDH / Na / PL / RALB / TBIL / TC / TG / TP / gamma-GTP / IP / Ca: tissue Plasma
[1] = 200 mg/kg, 72 h, dose level Middle, time 3 day
[2] = 200 mg/kg, […], dose level Middle, time 7 day
[3] = 200 mg/kg, […], dose level Middle, time 14 day
[4] = 200 mg/kg, […], dose level Middle, time 28 day
[5] = 600 mg/kg, 72 h, dose level High, time 3 day
[6] = 600 mg/kg, […], dose level High, time 7 day
[7] = 600 mg/kg, […], dose level High, time 14 day
[8] = 600 mg/kg, […], dose level High, time 28 day

Compound: O=C1NC(=O)C(c2ccccc2)(c2ccccc2)N1 [PHENYTOIN]
- TERMINAL_BW [1]: 220.5 g
- APTT [1]: 21 s
- Bas [1]: 0%
- Eos [1]: 0.8%
- Fbg [1]: 304.4 mg/dL
- Hb [1]: 13 g/dL
- Ht [1]: 39.4%
- Lym [1]: 77.4%
- MCHC [1]: 33.1%
- MCV [1]: 63.8 fL
- Mono [1]: 2.4%
- Neu [1]: 18.4%
- PT [1]: 15.5 s
- Plat [1]: 117 x10_4/uL
- RBC [1]: 618.4 x10_4/ul
- Ret [1]: 7.3%
- WBC [1]: 98.2 x10_2/uL
- KIDNEY_L [1]: 0.9 g
- KIDNEY_R [1]: 0.9 g
- KIDNEY_TOTAL [1]: 1.9 g
- LIVER [1]: 10.5 g
- ALP [1]: 1568.8 IU/L
- ALT [1]: 45.8 IU/L
- AST [1]: 75.4 IU/L
- CRE [1]: 0.1 mg/dL
- DBIL [1]: 0.008 mg/dL
- GLC [1]: 185.8 mg/dL
- K [1]: 4 meq/L
- LDH [1]: 188 IU/L
- Na [1]: 143.4 meq/L
- PL [1]: 147 mg/dL
- RALB [1]: 2.9 g/dL
- TBIL [1]: 0.012 mg/dL
- TC [1]: 84.4 mg/dL
- TG [1]: 85.2 mg/dL
- TP [1]: 5.8 g/dL
- gamma-GTP [1]: 1 IU/L
- TERMINAL_BW [2]: 247.9 g
- TERMINAL_BW [3]: 301 g
- TERMINAL_BW [4]: 393.6 g
- APTT [2]: 22.3 s
- Bas [2]: 0%
- Eos [2]: 0.6%
- Fbg [2]: 324 mg/dL
- Hb [2]: 13.1 g/dL
- Ht [2]: 38.8%
- Lym [2]: 79.8%
- MCHC [2]: 33.7%
- MCV [2]: 62.5 fL
- Mono [2]: 2.4%
- Neu [2]: 16.2%
- PT [2]: 15.6 s
- Plat [2]: 123.7 x10_4/uL
- RBC [2]: 621.2 x10_4/ul
- Ret [2]: 6%
- WBC [2]: 109.9 x10_2/uL
- APTT [3]: 22.3 s
- Bas [3]: 0%
- Eos [3]: 0.8%
- Fbg [3]: 285.6 mg/dL
- Hb [3]: 14.1 g/dL
- Ht [3]: 41.4%
- Lym [3]: 82.6%
- MCHC [3]: 34.1%
- MCV [3]: 62 fL
- Mono [3]: 2.2%
- Neu [3]: 13.6%
- PT [3]: 16.3 s
- Plat [3]: 121.5 x10_4/uL
- RBC [3]: 669.8 x10_4/ul
- Ret [3]: 4.7%
- WBC [3]: 112.2 x10_2/uL
- APTT [4]: 23.4 s
- Bas [4]: 0%
- Eos [4]: 1.2%
- Fbg [4]: 332.6 mg/dL
- Hb [4]: 15.4 g/dL
- Ht [4]: 43.4%
- Lym [4]: 84%
- MCHC [4]: 35.5%
- MCV [4]: 58.1 fL
- Mono [4]: 1.4%
- Neu [4]: 12.6%
- PT [4]: 15.8 s
- Plat [4]: 122.2 x10_4/uL
- RBC [4]: 747 x10_4/ul
- Ret [4]: 2.9%
- WBC [4]: 117 x10_2/uL
- KIDNEY_L [2]: 1.1 g
- KIDNEY_R [2]: 1 g
- KIDNEY_TOTAL [2]: 2.1 g
- KIDNEY_L [3]: 1.2 g
- KIDNEY_R [3]: 1.2 g
- KIDNEY_TOTAL [3]: 2.4 g
- KIDNEY_L [4]: 1.4 g
- KIDNEY_R [4]: 1.5 g
- KIDNEY_TOTAL [4]: 2.9 g
- LIVER [2]: 12.4 g
- LIVER [3]: 13.9 g
- LIVER [4]: 17.5 g
- ALP [2]: 1383 IU/L
- ALT [2]: 39.4 IU/L
- AST [2]: 61 IU/L
- CRE [2]: 0.2 mg/dL
- DBIL [2]: 0.004 mg/dL
- GLC [2]: 187.6 mg/dL
- IP [2]: 6.9 mg/dL
- K [2]: 4.1 meq/L
- LDH [2]: 159.2 IU/L
- Na [2]: 141.8 meq/L
- PL [2]: 146.4 mg/dL
- RALB [2]: 3.1 g/dL
- TBIL [2]: 0.024 mg/dL
- TC [2]: 74.8 mg/dL
- TG [2]: 120.4 mg/dL
- TP [2]: 5.8 g/dL
- gamma-GTP [2]: 1 IU/L
- ALP [3]: 1572.8 IU/L
- ALT [3]: 41.8 IU/L
- AST [3]: 65.8 IU/L
- CRE [3]: 0.2 mg/dL
- DBIL [3]: 0 mg/dL
- GLC [3]: 174.2 mg/dL
- IP [3]: 7 mg/dL
- K [3]: 4.2 meq/L
- LDH [3]: 130 IU/L
- Na [3]: 142.8 meq/L
- PL [3]: 147 mg/dL
- RALB [3]: 3.1 g/dL
- TBIL [3]: 0.002 mg/dL
- TC [3]: 70.6 mg/dL
- TG [3]: 163.4 mg/dL
- TP [3]: 5.6 g/dL
- gamma-GTP [3]: 1.6 IU/L
- ALP [4]: 1131.8 IU/L
- ALT [4]: 44 IU/L
- AST [4]: 74.6 IU/L
- CRE [4]: 0.2 mg/dL
- DBIL [4]: 0.002 mg/dL
- GLC [4]: 186.4 mg/dL
- IP [4]: 6.3 mg/dL
- K [4]: 3.9 meq/L
- LDH [4]: 146.2 IU/L
- Na [4]: 143.6 meq/L
- PL [4]: 160 mg/dL
- RALB [4]: 3.2 g/dL
- TBIL [4]: 0.028 mg/dL
- TC [4]: 81 mg/dL
- TG [4]: 138.4 mg/dL
- TP [4]: 6.3 g/dL
- gamma-GTP [4]: 1.6 IU/L
- TERMINAL_BW [5]: 211.2 g
- APTT [5]: 21.7 s
- Bas [5]: 0%
- Eos [5]: 1%
- Fbg [5]: 282.8 mg/dL
- Hb [5]: 13.4 g/dL
- Ht [5]: 39.8%
- Lym [5]: 77.6%
- MCHC [5]: 33.8%
- MCV [5]: 64.7 fL
- Mono [5]: 2.4%
- PT [5]: 15.7 s
- Plat [5]: 124.6 x10_4/uL
- RBC [5]: 617 x10_4/ul
- Ret [5]: 6.3%
- WBC [5]: 85 x10_2/uL
- KIDNEY_L [5]: 0.9 g
- KIDNEY_R [5]: 0.9 g
- KIDNEY_TOTAL [5]: 1.9 g
- LIVER [5]: 10.5 g
- ALP [5]: 1803.2 IU/L
- ALT [5]: 45 IU/L
- AST [5]: 73.6 IU/L
- CRE [5]: 0.1 mg/dL
- DBIL [5]: 0.002 mg/dL
- GLC [5]: 158 mg/dL
- IP [5]: 7.3 mg/dL
- K [5]: 4.4 meq/L
- LDH [5]: 193.6 IU/L
- Na [5]: 143.2 meq/L
- PL [5]: 127.4 mg/dL
- RALB [5]: 3 g/dL
- TBIL [5]: 0.01 mg/dL
- TC [5]: 67 mg/dL
- TG [5]: 74.6 mg/dL
- TP [5]: 5.7 g/dL
- gamma-GTP [5]: 1.2 IU/L
- TERMINAL_BW [6]: 243.1 g
- TERMINAL_BW [7]: 290.1 g
- TERMINAL_BW [8]: 332.2 g
- APTT [6]: 23.9 s
- Bas [6]: 0%
- Eos [6]: 0.6%
- Fbg [6]: 311.5 mg/dL
- Hb [6]: 13.8 g/dL
- Ht [6]: 39.7%
- Lym [6]: 80.4%
- MCHC [6]: 34.7%
- MCV [6]: 62.1 fL
- Mono [6]: 2.2%
- Neu [6]: 15.6%
- PT [6]: 15.6 s
- Plat [6]: 125.6 x10_4/uL
- RBC [6]: 638.6 x10_4/ul
- Ret [6]: 4.6%
- WBC [6]: 101.9 x10_2/uL
- APTT [7]: 25.5 s
- Bas [7]: 0%
- Eos [7]: 0.8%
- Fbg [7]: 281.6 mg/dL
- Hb [7]: 14.4 g/dL
- Ht [7]: 42.7%
- Lym [7]: 81.6%
- MCHC [7]: 33.6%
- MCV [7]: 60.3 fL
- Mono [7]: 1.8%
- Neu [7]: 14.6%
- PT [7]: 16.3 s
- Plat [7]: 121.7 x10_4/uL
- RBC [7]: 709.6 x10_4/ul
- Ret [7]: 4.4%
- WBC [7]: 118.8 x10_2/uL
- APTT [8]: 25.5 s
- Bas [8]: 0%
- Eos [8]: 1%
- Fbg [8]: 299 mg/dL
- Hb [8]: 15.7 g/dL
- Ht [8]: 44.4%
- Lym [8]: 85.2%
- MCHC [8]: 35.4%
- MCV [8]: 56.8 fL
- Mono [8]: 1.4%
- Neu [8]: 11.6%
- PT [8]: 15.9 s
- Plat [8]: 105 x10_4/uL
- RBC [8]: 781.8 x10_4/ul
- Ret [8]: 2.5%
- WBC [8]: 89.2 x10_2/uL
- KIDNEY_L [6]: 1.1 g
- KIDNEY_R [6]: 1.1 g
- KIDNEY_TOTAL [6]: 2.2 g
- KIDNEY_L [7]: 1.2 g
- KIDNEY_R [7]: 1.2 g
- KIDNEY_TOTAL [7]: 2.3 g
- KIDNEY_L [8]: 1.3 g
- KIDNEY_R [8]: 1.3 g
- KIDNEY_TOTAL [8]: 2.6 g
- LIVER [6]: 13.6 g
- LIVER [7]: 13.6 g
- LIVER [8]: 13.8 g
- ALP [6]: 1547.2 IU/L
- ALT [6]: 39.4 IU/L
- AST [6]: 59.6 IU/L
- CRE [6]: 0.2 mg/dL
- DBIL [6]: 0 mg/dL
- GLC [6]: 167 mg/dL
- IP [6]: 6.8 mg/dL
- K [6]: 4.2 meq/L
- LDH [6]: 173 IU/L
- Na [6]: 142.2 meq/L
- PL [6]: 145.2 mg/dL
- RALB [6]: 3 g/dL
- TBIL [6]: 0.024 mg/dL
- TC [6]: 77.8 mg/dL
- TG [6]: 78.6 mg/dL
- TP [6]: 5.8 g/dL
- gamma-GTP [6]: 1 IU/L
- ALP [7]: 1535.6 IU/L
- ALT [7]: 43.6 IU/L
- AST [7]: 65.6 IU/L
- CRE [7]: 0.2 mg/dL
- Ca [7]: 10.2 mg/dL
- DBIL [7]: 0 mg/dL
- GLC [7]: 186 mg/dL
- IP [7]: 6.4 mg/dL
- K [7]: 4.1 meq/L
- LDH [7]: 157.2 IU/L
- Na [7]: 143 meq/L
- PL [7]: 137.8 mg/dL
- RALB [7]: 3 g/dL
- TBIL [7]: 0.004 mg/dL
- TC [7]: 69.4 mg/dL
- TG [7]: 99.4 mg/dL
- TP [7]: 5.7 g/dL
- gamma-GTP [7]: 1.6 IU/L
- ALP [8]: 1175.6 IU/L
- ALT [8]: 40.4 IU/L
- AST [8]: 62 IU/L
- CRE [8]: 0.2 mg/dL
- Ca [8]: 10 mg/dL
- DBIL [8]: 0 mg/dL
- GLC [8]: 183.2 mg/dL
- IP [8]: 5.4 mg/dL
- K [8]: 4 meq/L
- LDH [8]: 135.8 IU/L
- Na [8]: 143.4 meq/L
- PL [8]: 135.4 mg/dL
- RALB [8]: 3.1 g/dL
- TBIL [8]: 0.024 mg/dL
- TC [8]: 67.2 mg/dL
- TG [8]: 95.4 mg/dL
- TP [8]: 6.1 g/dL
- gamma-GTP [8]: 1.4 IU/L

Source: ChEMBL document CHEMBL3885861, “Open TG-GATES”
